ChEMBL document CHEMBL4513141, “CO-ADD screening of NIH (USA) - Clinical Collection” (2021)
Values after ≈ are worked out from the molar mass of the structure shown. Where a name gives a salt, the structure may show the parent alone.

Legend:
[1] = test system: HEK293; test: cells; assay type: functional, Homo sapiens, ATCC CRL1573; settings: Homo sapiens, ATCC CRL1573, HEK293; ASSAY_TEST Inhibition of Cell Viability; detection method Resazurin; Fluorescence (ex560/em590); MEDIA DMEM with 10% FBS; plate type 384well; TC; CORNING #3712; time 18 hr
[2] = test system: Cryptococcus neoformans
Description: Antifungal activity against Cryptococcus neoformans H99 ATCC 208821 (CO-ADD:FG_002); MIC in YNB media using NBS plates, by Resazurin OD(600-570)

[3] = test system: Acinetobacter baumannii; test: microbe, parasite or virus in culture; settings: ATCC 19606, 18 h, ASSAY_TEST Inhibition of Bacterial Growth, detection method Absorption (OD600), MEDIA CAMHB, plate type 384well, NBS, CORNING #3640
Description: Antibacterial activity against Acinetobacter baumannii ATCC 19606 (CO-ADD:GN_034); MIC in CAMBH media using NBS plates, by OD600

[4] = test system: Klebsiella pneumoniae; test: microbe, parasite or virus in culture; settings: ATCC 700603, 18 h, ASSAY_TEST Inhibition of Bacterial Growth, detection method Absorption (OD600), MEDIA CAMHB, plate type 384well, NBS, CORNING #3640
Description: Antibacterial activity against Klebsiella pneumoniae MDR ATCC 70063 (CO-ADD:GN_003); MIC in CAMBH media using NBS plates, by OD(600)

[5] = test system: Escherichia coli; test: microbe, parasite or virus in culture; settings: ATCC 25922, 18 h, ASSAY_TEST Inhibition of Bacterial Growth, detection method Absorption (OD600), MEDIA CAMHB, plate type 384well, NBS, CORNING #3640
Description: Antibacterial activity against Escherichia coli ATCC 25922 (CO-ADD:GN_001); MIC in CAMBH media using NBS plates, by OD(600)

[6] = test system: Staphylococcus aureus; test: microbe, parasite or virus in culture; settings: ATCC 43300, 18 h, ASSAY_TEST Inhibition of Bacterial Growth, detection method Absorption (OD600), MEDIA CAMHB, plate type 384well, NBS, CORNING #3640
Description: Antibacterial activity against Staphylococcus aureus MRSA ATCC 43300 (CO-ADD:GP_020); MIC in CAMBH media, using NBS plates, by OD(600)

[7] = test system: Pseudomonas aeruginosa; test: microbe, parasite or virus in culture; settings: ATCC 27853, 18 h, ASSAY_TEST Inhibition of Bacterial Growth, detection method Absorption (OD600), MEDIA CAMHB, plate type 384well, NBS, CORNING #3640
Description: Antibacterial activity against Pseudomonas aeruginosa ATCC 27853 (CO-ADD:GN_042); MIC in CAMBH media using NBS plates, by OD(600)

[8] = test system: Candida albicans; test: microbe, parasite or virus in culture; settings: ATCC 90028, ASSAY_TEST Inhibition of Fungal Growth, detection method Absorption (OD530), plate type 384well, NBS, CORNING #3640
Description: Antifungal activity against Candida albicans ATCC 90028 (CO-ADD:FG_001); MIC in YNB media using NBS plates, by OD630

O=c1c2ccccc2[se]n1-c1ccccc1 [EBSELEN]
CC50 [1]: > 10 µM
MIC [2]: 2.5 µM (≈ 0.685 µg/mL)
MIC [3]: > 10 µM
MIC [4]: > 10 µM
MIC [5]: > 10 µM
MIC [6]: > 10 µM
MIC [7]: > 10 µM
MIC [8]: 5 µM (≈ 1.37 µg/mL)

CN(C)C1C(=O)C(C(N)=O)=C(O)C2(O)C(=O)C3=C(O)c4c(O)ccc(Cl)c4C(O)C3CC12 (centres undefined)
CC50 [1]: > 10 µM
MIC [2]: > 10 µM
MIC [3]: > 10 µM
MIC [4]: > 10 µM
MIC [5]: 5 µM (≈ 2.32 µg/mL)
MIC [6]: 1.25 µM (≈ 0.581 µg/mL)
MIC [7]: 2.5 µM (≈ 1.16 µg/mL)
MIC [8]: > 10 µM

CN(CCCN1c2ccccc2CCc2ccccc21)CC(=O)c1ccc(Cl)cc1 [LOFEPRAMINE]
CC50 [1]: > 10 µM
MIC [2]: > 10 µM
MIC [3]: > 10 µM
MIC [4]: > 10 µM
MIC [5]: > 10 µM
MIC [6]: > 10 µM
MIC [7]: > 10 µM
MIC [8]: > 10 µM

CCc1oc2ccccc2c1C(=O)c1cc(Br)c(O)c(Br)c1 [BENZBROMARONE]
CC50 [1]: > 10 µM
MIC [2]: > 10 µM
MIC [3]: > 10 µM
MIC [4]: > 10 µM
MIC [5]: > 10 µM
MIC [6]: > 10 µM
MIC [7]: > 10 µM
MIC [8]: > 10 µM

COC1=C(OC)C(=O)C(CCCCCCCCCCO)=C(C)C1=O [IDEBENONE]
CC50 [1]: > 10 µM
MIC [2]: > 10 µM
MIC [3]: > 10 µM
MIC [4]: > 10 µM
MIC [5]: > 10 µM
MIC [6]: > 10 µM
MIC [7]: > 10 µM
MIC [8]: > 10 µM

C=CC1=C(C(=O)O)N2C(=O)[C@@H](NC(=O)/C(=N\O)c3csc(N)n3)[C@H]2SC1
CC50 [1]: > 10 µM
MIC [2]: > 10 µM
MIC [3]: > 10 µM
MIC [4]: 10 µM (≈ 3.95 µg/mL)
MIC [5]: 2.5 µM (≈ 0.989 µg/mL)
MIC [6]: 5 µM (≈ 1.98 µg/mL)
MIC [7]: > 10 µM
MIC [8]: > 10 µM

CC1(C)SC2C(NC(=O)COc3ccccc3)C(=O)N2C1C(=O)O (centres undefined)
CC50 [1]: > 10 µM
MIC [2]: > 10 µM
MIC [3]: > 10 µM
MIC [4]: > 10 µM
MIC [5]: > 10 µM
MIC [6]: > 10 µM
MIC [7]: > 10 µM
MIC [8]: > 10 µM

NC(=O)c1ncn(C2OC(CO)C(O)C2O)n1 (centres undefined)
CC50 [1]: > 10 µM
MIC [2]: > 10 µM
MIC [3]: > 10 µM
MIC [4]: > 10 µM
MIC [5]: > 10 µM
MIC [6]: > 10 µM
MIC [7]: > 10 µM
MIC [8]: > 10 µM

OC(Cn1cncn1)(Cn1cncn1)c1ccc(F)cc1F [FLUCONAZOLE]
CC50 [1]: > 10 µM
MIC [2]: > 10 µM
MIC [3]: > 10 µM
MIC [4]: > 10 µM
MIC [5]: > 10 µM
MIC [6]: > 10 µM
MIC [7]: > 10 µM
MIC [8]: 2.5 µM (≈ 0.766 µg/mL)

CO[C@H]1C=CO[C@@]2(C)Oc3c(C)c(O)c4c(O)c(c5c(nc6cc(C)ccn65)c4c3C2=O)NC(=O)C(C)=CC=C[C@H](C)[C@H](O)[C@@H](C)[C@@H](O)[C@@H](C)[C@H](OC(C)=O)[C@@H]1C
CC50 [1]: > 10 µM
MIC [2]: > 10 µM
MIC [3]: 10 µM (≈ 7.86 µg/mL)
MIC [4]: > 10 µM
MIC [5]: 10 µM (≈ 7.86 µg/mL)
MIC [6]: ≤ 0.0781 µM
MIC [7]: 2.5 µM (≈ 1.96 µg/mL)
MIC [8]: > 10 µM

CO[C@H]1/C=C/O[C@@]2(C)Oc3c(C)c(O)c4c(O)c(c(C=NN5CCN(C)CC5)c(O)c4c3C2=O)NC(=O)/C(C)=C\C=C\[C@H](C)[C@H](O)[C@@H](C)[C@@H](O)[C@@H](C)[C@H](OC(C)=O)[C@@H]1C
CC50 [1]: > 10 µM
MIC [2]: > 10 µM
MIC [3]: > 10 µM
MIC [4]: > 10 µM
MIC [5]: 10 µM (≈ 8.23 µg/mL)
MIC [6]: ≤ 0.0781 µM
MIC [7]: 2.5 µM (≈ 2.06 µg/mL)
MIC [8]: > 10 µM

COCc1c(C(C)C)nc(C(C)C)c(/C=C/[C@@H](O)C[C@@H](O)CC(=O)O)c1-c1ccc(F)cc1 [CERIVASTATIN SODIUM]
CC50 [1]: > 10 µM
MIC [2]: 5 µM
MIC [3]: > 10 µM
MIC [4]: > 10 µM
MIC [5]: > 10 µM
MIC [6]: > 10 µM
MIC [7]: > 10 µM
MIC [8]: 5 µM

CC1c2cccc(O)c2C(=O)C2=C(O)C3(O)C(O)=C(C(N)=O)C(=O)C(N(C)C)C3C(O)C21 (centres undefined)
CC50 [1]: > 10 µM
MIC [2]: > 10 µM
MIC [3]: > 10 µM
MIC [4]: > 10 µM
MIC [5]: 1.25 µM (≈ 0.556 µg/mL)
MIC [6]: 0.625 µM (≈ 0.278 µg/mL)
MIC [7]: 0.312 µM (≈ 0.139 µg/mL)
MIC [8]: > 10 µM

Nc1nc(=O)[nH]cc1F [FLUCYTOSINE]
CC50 [1]: > 10 µM
MIC [2]: 0.625 µM (≈ 0.0807 µg/mL)
MIC [3]: > 10 µM
MIC [4]: > 10 µM
MIC [5]: > 10 µM
MIC [6]: > 10 µM
MIC [7]: > 10 µM
MIC [8]: 0.625 µM (≈ 0.0807 µg/mL)

CCN(CC)C(=S)SSC(=S)N(CC)CC
CC50 [1]: 5.04 µM
MIC [2]: 5 µM (≈ 1.48 µg/mL)
MIC [3]: > 10 µM
MIC [4]: > 10 µM
MIC [5]: > 10 µM
MIC [6]: > 10 µM
MIC [7]: > 10 µM
MIC [8]: 2.5 µM (≈ 0.741 µg/mL)

O=C(NC(CO)C(O)c1ccc([N+](=O)[O-])cc1)C(Cl)Cl (centres undefined)
CC50 [1]: > 10 µM
MIC [2]: > 10 µM
MIC [3]: > 10 µM
MIC [4]: > 10 µM
MIC [5]: 10 µM (≈ 3.23 µg/mL)
MIC [6]: > 10 µM
MIC [7]: > 10 µM
MIC [8]: > 10 µM

C[C@@H](c1ncncc1F)[C@](O)(Cn1cncn1)c1ccc(F)cc1F [VORICONAZOLE]
CC50 [1]: > 10 µM
MIC [2]: 0.625 µM (≈ 0.218 µg/mL)
MIC [3]: > 10 µM
MIC [4]: > 10 µM
MIC [5]: > 10 µM
MIC [6]: > 10 µM
MIC [7]: > 10 µM
MIC [8]: ≤ 0.0781 µM

Cc1cn([C@H]2C[C@H](N=[N+]=[N-])[C@@H](CO)O2)c(=O)[nH]c1=O [ZIDOVUDINE]
CC50 [1]: > 10 µM
MIC [2]: > 10 µM
MIC [3]: > 10 µM
MIC [4]: 5 µM (≈ 1.34 µg/mL)
MIC [5]: 5 µM (≈ 1.34 µg/mL)
MIC [6]: > 10 µM
MIC [7]: > 10 µM
MIC [8]: > 10 µM

CC[C@H]1OC(=O)[C@H](C)[C@@H](O[C@H]2C[C@@](C)(OC)[C@@H](O)[C@H](C)O2)[C@H](C)[C@@H](O[C@@H]2O[C@H](C)C[C@H](N(C)C)[C@H]2O)[C@](C)(OC)C[C@@H](C)C(=O)[C@H](C)[C@@H](O)[C@]1(C)O [CLARITHROMYCIN]
CC50 [1]: > 10 µM
MIC [2]: > 10 µM
MIC [3]: > 10 µM
MIC [4]: > 10 µM
MIC [5]: > 10 µM
MIC [6]: > 10 µM
MIC [7]: 10 µM (≈ 7.48 µg/mL)
MIC [8]: > 10 µM

CC(=O)[C@]1(O)Cc2c(O)c3c(c(O)c2[C@@H](O[C@H]2C[C@H](N)[C@H](O)[C@H](C)O2)C1)C(=O)c1ccccc1C3=O [IDARUBICIN HYDROCHLORIDE]
CC50 [1]: > 10 µM
MIC [2]: > 10 µM
MIC [3]: > 10 µM
MIC [4]: > 10 µM
MIC [5]: > 10 µM
MIC [6]: 5 µM
MIC [7]: > 10 µM
MIC [8]: > 10 µM

CCN1CCN(C(=O)N[C@@H](C(=O)N[C@@H]2C(=O)N3[C@@H]2SC(C)(C)[C@@H]3C(=O)O)c2ccccc2)C(=O)C1=O [PIPERACILLIN SODIUM]
CC50 [1]: > 10 µM
MIC [2]: > 10 µM
MIC [3]: 10 µM
MIC [4]: > 10 µM
MIC [5]: 10 µM
MIC [6]: > 10 µM
MIC [7]: > 10 µM
MIC [8]: > 10 µM

Oc1cc(Cl)ccc1Oc1ccc(Cl)cc1Cl [TRICLOSAN]
CC50 [1]: > 10 µM
MIC [2]: > 10 µM
MIC [3]: > 10 µM
MIC [4]: > 10 µM
MIC [5]: > 10 µM
MIC [6]: 2.5 µM (≈ 0.724 µg/mL)
MIC [7]: > 10 µM
MIC [8]: > 10 µM

C=CC[C@@H]1C=C(C)C[C@H](C)C[C@H](OC)[C@H]2O[C@@](O)(C(=O)C(=O)N3CCCC[C@H]3C(=O)O[C@H](/C(C)=C/[C@@H]3CC[C@@H](O)[C@H](OC)C3)[C@H](C)[C@@H](O)CC1=O)[C@H](C)C[C@@H]2OC
CC50 [1]: > 10 µM
MIC [2]: ≤ 0.0781 µM
MIC [3]: > 10 µM
MIC [4]: > 10 µM
MIC [5]: > 10 µM
MIC [6]: > 10 µM
MIC [7]: > 10 µM
MIC [8]: > 10 µM
